# Experimental data as given in patent US20110065706A1, “Therapeutic Agents 812” (AstraZeneca AB, priority 2009, published 2011).
# Biological target: T1, human GPR119 (Homo sapiens, UniProt Q8TDV5)
# T1 construct: expressed in transfected cells; host or cells: HEK 293s
# T1 sequence (Q8TDV5 1-335): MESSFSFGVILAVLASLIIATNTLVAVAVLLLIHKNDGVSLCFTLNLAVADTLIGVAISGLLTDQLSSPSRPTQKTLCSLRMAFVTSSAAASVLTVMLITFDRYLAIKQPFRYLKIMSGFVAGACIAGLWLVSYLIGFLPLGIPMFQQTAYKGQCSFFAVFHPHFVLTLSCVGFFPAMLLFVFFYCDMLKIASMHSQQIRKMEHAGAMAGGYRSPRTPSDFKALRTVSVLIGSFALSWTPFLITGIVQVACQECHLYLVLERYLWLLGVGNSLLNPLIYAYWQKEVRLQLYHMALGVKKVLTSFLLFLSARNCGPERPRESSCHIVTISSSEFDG
# Test: Cyclic AMP (HTRF cAMP) assay for human GPR119, Method A
# Assay type: cell-based
# Settings: HEK293S, 0.75 h; Method A; HEK 293s cells over-expressing human GPR119; percent effect at top concentration 30 μM relative to maximum (50 μM Oleoylethanolamide) and minimum (1% DMSO) controls
row,SMILES,activation at 30 µM [%]
1,"CC(C)NC(=O)c1ccc(COc2cnc(N3CCN(C(=O)OC(C)(C)C)CC3)nc2)cc1 [Example 46, tert-butyl 4-(5-(4-(isopropylcarba-moyl)benzyl-oxy)pyrimidin-2-yl)piperazine-1-carboxylate]",94
2,"CNC(=O)c1ccc(COc2cnc(N3CCN(C(=O)OC(C)(C)C)CC3)nc2)cc1 [Example 45, tert-butyl 4-(5-(4-(methylcarba-moyl)benzyloxy)pyrimidin-2-yl)piperazine-1-carboxylate]",142
3,"CC(C)(C)OC(=O)N1CCN(c2ncc(OCc3ccc(S(C)(=O)=O)c(F)c3)cn2)CC1 [Example 32, tert-butyl 4-(5-(3-fluoro-4-(methylsulfonyl)benzyloxy)pyrimidin-2-yl)piperazine-1-carboxylate]",62
4,"Cc1cc(COc2cnc(N3CCN(C(=O)OC(C)(C)C)CC3)nc2)ccc1C(=O)NC(C)C [Example 54, Tert-butyl 4-(5-(4-(isopropylcarbamoyl)-3-methylbenzyloxy)pyrimidin-2-yl)piperazine-1-carboxylate]",51
5,"CC(C)OC(=O)N1CCN(c2ncc(OCc3ccc(S(C)(=O)=O)cc3)cn2)CC1 [Example 56, Isopropyl 4-(5-(4-(methylsulfonyl)benzyloxy)pyrimidin-2-yl)piperazine-1-carboxylate]",63
6,"CC(C)C(=O)Nc1ccc(COc2cnc(N3CCN(C(=O)OC(C)(C)C)CC3)nc2)cc1 [Example 14, tert-butyl 4-(5-(4-isobutyramido-benzyloxy)pyrimidin-2-yl)piperazine-1-carboxylate]",78
7,"Cc1cc(COc2cnc(N3CCN(C(=O)OC(C)(C)C)CC3)nc2)ccc1NC(=O)C(C)(C)C [Example 13, tert-butyl 4-(5-(3-methyl-4-pivalamido-benzyloxy)pyrimidin-2-yl)piperazine-1-carboxylate]",41
8,"CS(=O)(=O)c1ccc(COc2cnc(N3CCN(c4ncc(F)cn4)CC3)nc2)cc1 [Example 42, 5-fluoro-2-(4-(5-(4-(methylsulfonyl)benzyloxy)pyrim-idin-2-yl)piperazin-1-yl)pyrimidine]",64
9,"Cc1cc(COc2cnc(N3CCN(C(=O)OC(C)(C)C)CC3)nc2)ccc1S(C)(=O)=O [Example 37, tert-butyl 4-(5-(3-methyl-4-(methylsulf-onyl)benzyl-oxy)pyrimi-din-2-yl)piperazine-1-carboxylate]",52
10,"Cc1nc(-c2ccc(COc3cnc(N4CCN(C(=O)OC(C)(C)C)CC4)nc3)cc2)no1 [Example 4, tert-butyl 4-(5-(4-(5-methyl-1,2,4-oxadiazol-3-yl)benzyloxy)pyrimidin-2-yl)piperazine-1-carboxylate]",69
11,"CC(C)OC(=O)N1CCN(c2ncc(OCc3ccc(S(C)(=O)=O)cc3)cn2)[C@H](C)C1 [Example 57, (R)-isopropyl 3-methyl-4-(5-(4-(methylsulfonyl)benzyloxy)pyrimidin-2-yl)piperazine-1-carboxylate]",69
12,"CC(OC(=O)N1CCN(c2ncc(OCc3ccc(S(C)(=O)=O)cc3)cn2)CC1)C(F)(F)F (stereo not drawn) [Example 66, 1,1,1-Trifluoropropan-2-yl 4-(5-(4-(methylsulfonyl)benzyloxy)pyrimidin-2-yl)piperazine-1-carboxylate]",56
13,"Cc1cc(COc2cnc(N3CCN(C(=O)OC(C)(C)C)CC3)nc2)ccc1NC(=O)C(C)C [Example 12, tert-butyl 4-(5-(4-isobutyr-amido-3-methyl-benzyloxy)pyrimidin-2-yl)piperazine-1-carboxylate]",54
14,"CC(C)(C)OC(=O)N1CCN(c2ncc(OCc3ccc(-n4cccn4)nc3)cn2)CC1 [Example 5, tert-butyl 4-(5-((6-(1H-pyrazol-1-yl)pyridin-3-yl)methoxy)pyrimidin-2-yl)piperazine-1-carboxylate]",82

# Next, values leading:
row,activation at 30 µM [%],SMILES
1,8,"C[C@@H]1CN(C(=O)OC2CCOC2)CCN1c1ncc(OCc2ccc(S(C)(=O)=O)cc2)cn1 (stereo partly drawn) [Example 78, (3R)-Tetrahydrofuran-3-yl 3-methyl-4-(5-(4-(methylsulfonyl)benzyloxy)pyrimidin-2-yl)piperazine-1-carboxylate]"
2,315,"C[C@@H]1CN(C(=O)O[C@@H](C)C(F)(F)F)CCN1c1ncc(OCc2ccncc2C#N)cn1 [Example 104, (R)-((S)-1,1,1-trifluoropropan-2-yl)4-(5-((3-cyanopyridin-4-yl)methoxy)pyrimidin-2-yl)-3-mcthylpipcrazine-1-carboxylate]"
3,143,"CC1(OC(=O)N2CCN(c3ncc(OCc4ccncc4C#N)cn3)CC2)COC1 [Example 81, 3-methyloxetan-3-yl 4-(5-((3-cyanopyridin-4-yl)methoxy)pyrimi-din-2-yl)piperazine-1-carboxylate]"
4,82,"C[S+]([O-])c1ccc(COc2cnc(N3CCN(C(=O)OC(C)(C)C)CC3)nc2)cc1 (stereo not drawn) [Example 93, Tert-butyl 4-(5-(4-(methylsulfinyl)benzyloxy)pyrimidin-2-yl)piperazine-1-carboxylate]"
5,48,"CC(C)(C)OC(=O)N1CCN(c2ncc(OCc3ccc(S(=O)(=O)C4CC4)cc3)cn2)CC1 [Example 84, Tert-butyl 4-(5-(4-(cyclopropyl-sulfonyl)benzyloxy)pyrimidin-2-yl)pipcrazinc-1-carboxylate]"
6,60,"CC(OC(=O)N1CCN(c2ncc(OCc3ccc(S(C)(=O)=O)cc3)cn2)[C@H](C)C1)C(F)(F)F (stereo partly drawn) [Example 67, (3R)-1,1,1-trifluoropropan-2-yl 3-methyl-4-(5-(4-(methylsulfonyl)benzyloxy)pyrim-idin-2-yl)piperazine-1-carboxylate]"
7,68,"CC(C)(C)OC(=O)N1CCN(c2ncc(OCc3ccc(S(=O)(=O)CCN4CCOCC4)cc3)cn2)CC1 [Example 92, Tert-butyl 4-(5-(4-(2-morpholinoethylsulfonyl)benzyloxy)pyrimidin-2-yl)piperazine-1-carboxylate]"
8,55,"C[C@@H]1CN(C(=O)OC2(C(F)(F)F)COC2)CCN1c1ncc(OCc2ccc(S(C)(=O)=O)cc2)cn1 [Example 110, (R)-3-(trifluoromethyl) oxetan-3-yl 3-mcthyl-4-(5-(4-(mcthylsulfonyl)benzyloxy)pyrimidin-2-yl)piperazine-1-carboxylate]"
9,73,CC(C)c1nc(N2CCN(c3ncc(OCc4ccc(S(C)(=O)=O)cc4)cn3)[C@H](C)C2)no1 [Example 89]
10,30,"C[C@@H]1CN(C(=O)OC2COC2)CCN1c1ncc(OCc2ccc(S(C)(=O)=O)cc2)cn1 [Example 76, (R)-oxetan-3-yl 3-methyl-4-(5-(4-(methylsulfonyl)benzyloxy)pyrimidin-2-yl)piperazine-1-carboxylate]"
11,169,"CC(OC(=O)N1CCN(c2ncc(OCc3ccncc3C#N)cn2)CC1)C(F)(F)F (stereo not drawn) [Example 68, 1,1,1-trifluoropropan-2-yl 4-(5-((3-cyanopyridin-4-yl)methoxy)pyrim-idin-2-yl)piperazine-1-carboxylate]"

# Same assay, conditions: Method A; HEK 293s cells over-expressing human GPR119; midpoint of dose response curve; selected examples
row,EC50 [nM],SMILES
1,32,"CC(C)NC(=O)c1ccc(COc2cnc(N3CCN(C(=O)OC(C)(C)C)CC3)nc2)cc1 [Example 46, tert-butyl 4-(5-(4-(isopropylcarba-moyl)benzyl-oxy)pyrimidin-2-yl)piperazine-1-carboxylate]"
2,39,"CC(OC(=O)N1CCN(c2ncc(OCc3ccc(S(C)(=O)=O)cc3)cn2)[C@H](C)C1)C(F)(F)F (stereo partly drawn) [Example 67, (3R)-1,1,1-trifluoropropan-2-yl 3-methyl-4-(5-(4-(methylsulfonyl)benzyloxy)pyrim-idin-2-yl)piperazine-1-carboxylate]"
3,156,"CS(=O)(=O)c1ccc(COc2cnc(N3CCN(c4ncc(F)cn4)CC3)nc2)cc1 [Example 42, 5-fluoro-2-(4-(5-(4-(methylsulfonyl)benzyloxy)pyrim-idin-2-yl)piperazin-1-yl)pyrimidine]"
4,20,"Cc1cc(COc2cnc(N3CCN(C(=O)OC(C)(C)C)CC3)nc2)ccc1S(C)(=O)=O [Example 37, tert-butyl 4-(5-(3-methyl-4-(methylsulf-onyl)benzyl-oxy)pyrimi-din-2-yl)piperazine-1-carboxylate]"

# Same assay, conditions: human GPR119 cAMP assay; top concentration 30 μM
row,significant activity at a top concentration of 30 μM,SMILES
1,did not show significant activity,"COc1cc(COc2cnc(N3CCN(C(=O)OC(C)(C)C)CC3)nc2)cc(OC)n1 [tert-butyl 4-[5-[(2,6-dimethoxy-4-pyridyl)methoxy]pyrimidin-2-yl]piperazine-1-carboxylate]"
